Measurements: article PMC6010093, “α-Glucosidase inhibitory activity and cytotoxic effects of some cyclic urea and carbamate derivatives” (Journal of Enzyme Inhibition and Medicinal Chemistry, 2017)
Entries after “also recorded” stand apart in the source; their conditions may differ.

Legend:
[1] = test system: HeLa, cervix adenocarcinoma cell line; test: MTT cytotoxicity assay, HeLa; assay type: cell-based; conditions: Homo sapiens, 72 h exposure, mean ± standard deviation
[2] = test system: A549, non-small cell lung carcinoma cell line; test: MTT cytotoxicity assay, A549; assay type: cell-based; conditions: Homo sapiens, 72 h exposure, mean ± standard deviation
[3] = test system: MDA-MB-453 human breast cancer cell line; test: MTT cytotoxicity assay, MDA-MB-453; assay type: cell-based; conditions: 72 h exposure, mean ± standard deviation
HeLa cells = test: Morphological evaluation of cell death (acridine orange/ethidium bromide staining, fluorescence microscope); assay type: cell-based, human
Experimental: After 24 h of seeding 80 000 HeLa cells per well, they were treated with compound dilutions of IC50 and 2 × IC50 in control only nutrient medium was added. After another 24 h of incubation cells were stained with acridine orange AO and ethidium bromide EB (3 μg/mLAO +10 μg/mL EB in PBS), then visualized under a fluorescence microscope (Carl Zeiss, Oberkochen, Germany) PALM MicroBeam with Axio Observer.Z1 using AxioCam MRm (filters Alexa 488 and 568), as described in literature.
Morphological changes were observed after cells were stained with acridine orange and ethidium-bromide. Acridine orange can penetrate into the living cells and emits green fluorescence, while ethidium-bromide enters the cells after cell membrane damage and emits red fluorescence. […] Observed control cells are with unchanged morphology, stained green.

[4] = 24 h treatment with 2 × IC50 concentration of compound
[5] = 24 h treatment with IC50 dilution of compound

CC(C)(C)OC(=O)N1CCC(NC(=O)OCc2ccccc2)CC1 [Compound 8] gave an IC50 [1] of 158 ± 6.04 µM, an IC50 [2] of 155.8 ± 0.7 µM and an IC50 [3] of 112 ± 4.91 µM. For the same compound, the “Morphological changes of HeLa cells (cell death type)” value (shortened to “Morphological changes of HeLa cells”) (HeLa cells; [4]) was “necrotic changes” and the “Morphological changes of HeLa cells” value (HeLa cells; [5]) was “late apoptotic signs; also recorded: apoptosis occurred”.
For COC(=O)Nc1cc(OC)c(OC)c(OC)c1 [Compound 11], the IC50 [1] was 194.4 ± 1.44 µM, the IC50 [2] was 200 ± 2.37 µM and the IC50 [3] was 164 ± 3.93 µM. For the same compound, the “Morphological changes of HeLa cells” value (HeLa cells; [4]) was “necrotic changes” and the “Morphological changes of HeLa cells” value (HeLa cells; [5]) was “late apoptotic signs; also recorded: apoptosis occurred”.
COc1cc(NC(=O)OCc2ccccc2)cc(OC)c1OC [Compound 12, benzyl (3,4,5-trimethoxyphenyl)carbamate] showed an IC50 [1] of 139 ± 8.28 µM, an IC50 [2] of 180 ± 2.57 µM and an IC50 [3] of 108 ± 4.95 µM. The “Morphological changes of HeLa cells” value (HeLa cells; [4]) was “necrotic changes” and the “Morphological changes of HeLa cells” value (HeLa cells; [5]) was “late apoptotic signs; also recorded: apoptosis occurred”.
